Source: US9695155B2, “Herbicidal substituted pyrimidinyloxy benzene compounds” (E. I. DU PONT DE NEMOURS AND COMPANY, priority 2013, dated 2017)

Columns and labels:
corn [1] = experiment: Test A preemergence; format: in vivo, Zea mays; conditions: for Plant response rating, Corn: 125 g ai/ha; for Corn plant response rating: 500 g ai/ha
Procedure, shortened: (§1)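 Visual 0–100 rating (100 = complete control) taken about 10 d post-treatment relative to untreated checks. Preemergence: directed soil spray on sown loam/sand pots. Postemergence: seedlings 2–10 cm, 1–2 leaf. Non-phytotoxic solvent formulation with surfactant.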

wheat [2] = experiment: Test A postemergence; format: in vivo, Triticum aestivum
Procedure, shortened: as §1

pigweed [3] = experiment: Test A preemergence; format: in vivo, Amaranthus retroflexus; conditions: for Pigweed plant response rating: 500 g ai/ha
Procedure, shortened: as §1

giant foxtail [4] = experiment: Test A postemergence; format: in vivo, Setaria faberii
Procedure, shortened: as §1

pigweed [5] = experiment: Test A postemergence; format: in vivo, Amaranthus retroflexus
Procedure, shortened: as §1

barnyardgrass [6] = experiment: Test A preemergence; format: in vivo, Echinochloa crus-galli; conditions: for Plant response rating, Barnyardgrass: 125 g ai/ha; for Barnyardgrass plant response rating: 500 g ai/ha
Procedure, shortened: as §1

Heteranthera limosa = experiment: Test B flooded paddy test; format: in vivo; conditions: Flood, 250 g ai/ha; 0 to 100 scale where 0 is no effect and 100 is complete control
Procedure, shortened: (§2)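 Greenhouse flooded-pot test: compounds dosed into 3 cm standing water over 2-leaf plants, flood held constant. Rated visually after 13–15 days on 0–100 (complete control = 100); a dash marks no test result.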

barnyardgrass [7] = experiment: Test A postemergence; format: in vivo, Echinochloa crus-galli
Procedure, shortened: as §1

wheat [8] = experiment: Test A preemergence; format: in vivo, Triticum aestivum; conditions: for Wheat plant response rating: 500 g ai/ha
Procedure, shortened: as §1

morningglory [9] = experiment: Test A postemergence; format: in vivo, Ipomoea spp.
Procedure, shortened: as §1

morningglory [10] = experiment: Test A preemergence; format: in vivo, Ipomoea spp.; conditions: for Morningglory plant response rating: 500 g ai/ha
Procedure, shortened: as §1

giant foxtail [11] = experiment: Test A preemergence; format: in vivo, Setaria faberii; conditions: for Plant response rating, Foxtail, Giant: 125 g ai/ha; for Foxtail, Giant plant response rating: 500 g ai/ha
Procedure, shortened: as §1

barnyardgrass [12] = experiment: Test B flooded paddy test; format: in vivo, Echinochloa crus-galli; conditions: Flood, 250 g ai/ha; 0 to 100 scale where 0 is no effect and 100 is complete control
Procedure, shortened: as §2

sedge, umbrella = experiment: Test B flooded paddy test; format: in vivo, Cyperus difformis; conditions: Flood, 250 g ai/ha; 0 to 100 scale where 0 is no effect and 100 is complete control
Procedure, shortened: as §2

velvetleaf [13] = experiment: Test A preemergence; format: in vivo, Abutilon theophrasti; conditions: for Velvetleaf plant response rating: 500 g ai/ha
Procedure, shortened: as §1

large (Lg) crabgrass [14] = experiment: Test A postemergence; format: in vivo, Digitaria sanguinalis
Procedure, shortened: as §1

large (Lg) crabgrass [15] = experiment: Test A preemergence; format: in vivo, Digitaria sanguinalis; conditions: for Plant response rating, Crabgrass, Large: 125 g ai/ha; for Crabgrass, Large plant response rating: 500 g ai/ha
Procedure, shortened: as §1

velvetleaf [16] = experiment: Test A postemergence; format: in vivo, Abutilon theophrasti
Procedure, shortened: as §1

corn [17] = experiment: Test A postemergence; format: in vivo, Zea mays
Procedure, shortened: as §1

rice = experiment: Test B flooded paddy test; format: in vivo, Oryza sativa; conditions: Flood, 250 g ai/ha; 0 to 100 scale where 0 is no effect and 100 is complete control
Procedure, shortened: as §2

[18] = 0 to 100 scale where 0 is no effect and 100 is complete control
[19] = 0 to 100 scale, 0 no effect, 100 complete control, approx. 10 days
[20] = 125 g ai/ha, 0 to 100 scale where 0 is no effect and 100 is complete control
[21] = 500 g ai/ha, 0 to 100 scale, 0 no effect, 100 complete control
[22] = 500 g ai/ha, 0 to 100 scale where 0 is no effect and 100 is complete control

SMILES: Clc1cnc(Oc2ccccc2-n2cc(Br)c(Br)n2)nc1 [Compound 19]
- Plant response rating, Corn (corn [1]; [18]): 0
- Corn plant response rating (corn [1]; [19]): 0
- Plant response rating, Wheat (wheat [2]; [20]): 0
- Plant response rating, Wheat (wheat [2]; [21]): 0
- Plant response rating, Pigweed (pigweed [3]; [20]): 0
- Pigweed plant response rating (pigweed [3]; [19]): 100
- Plant response rating, Foxtail, Giant (giant foxtail [4]; [20]): 0
- Plant response rating, Foxtail, Giant (giant foxtail [4]; [21]): 30
- Plant response rating, Pigweed (pigweed [5]; [20]): 30
- Plant response rating, Pigweed (pigweed [5]; [21]): 90
- Plant response rating, Barnyardgrass (barnyardgrass [6]; [18]): 0
- Barnyardgrass plant response rating (barnyardgrass [6]; [19]): 20
- Plant response rating, Ducksalad (Heteranthera limosa): 40
- Plant response rating, Barnyardgrass (barnyardgrass [7]; [20]): 0
- Plant response rating, Barnyardgrass (barnyardgrass [7]; [21]): 20
- Plant response rating, Wheat (wheat [8]; [20]): 0
- Wheat plant response rating (wheat [8]; [19]): 0
- Plant response rating, Morningglory (morningglory [9]; [20]): 0
- Plant response rating, Morningglory (morningglory [9]; [21]): 40
- Plant response rating, Morningglory (morningglory [10]; [20]): 0
- Morningglory plant response rating (morningglory [10]; [19]): 0
- Plant response rating, Foxtail, Giant (giant foxtail [11]; [18]): 20
- Foxtail, Giant plant response rating (giant foxtail [11]; [19]): 90
- Plant response rating, Barnyardgrass (barnyardgrass [12]): 0
- Plant response rating, Sedge, Umbrella (sedge, umbrella): 30
- Plant response rating, Velvetleaf (velvetleaf [13]; [20]): 0
- Velvetleaf plant response rating (velvetleaf [13]; [19]): 20
- Plant response rating, Crabgrass, Large (large (Lg) crabgrass [14]; [20]): 0
- Plant response rating, Crabgrass, Large (large (Lg) crabgrass [14]; [21]): 20
- Plant response rating, Crabgrass, Large (large (Lg) crabgrass [15]; [18]): 0
- Crabgrass, Large plant response rating (large (Lg) crabgrass [15]; [19]): 90
- Plant response rating, Velvetleaf (velvetleaf [16]; [20]): 30
- Plant response rating, Velvetleaf (velvetleaf [16]; [21]): 60
- Plant response rating, Corn (corn [17]; [20]): 0
- Plant response rating, Corn (corn [17]; [21]): 30
- Plant response rating, Rice (rice): 20

SMILES: CC(C)(C)c1ccn(-c2ccccc2Oc2ncc(Cl)cn2)n1 [Compound 29]
- Plant response rating, Corn (corn [1]; [18]): 0
- Corn plant response rating (corn [1]; [19]): 0
- Plant response rating, Wheat (wheat [2]; [20]): 0
- Plant response rating, Wheat (wheat [2]; [21]): 0
- Plant response rating, Pigweed (pigweed [3]; [20]): 0
- Pigweed plant response rating (pigweed [3]; [19]): 0
- Plant response rating, Foxtail, Giant (giant foxtail [4]; [20]): 20
- Plant response rating, Foxtail, Giant (giant foxtail [4]; [21]): 30
- Plant response rating, Pigweed (pigweed [5]; [20]): 20
- Plant response rating, Pigweed (pigweed [5]; [21]): 50
- Plant response rating, Barnyardgrass (barnyardgrass [6]; [18]): 0
- Barnyardgrass plant response rating (barnyardgrass [6]; [19]): 20
- Plant response rating, Ducksalad (Heteranthera limosa): 0
- Plant response rating, Barnyardgrass (barnyardgrass [7]; [20]): 0
- Plant response rating, Barnyardgrass (barnyardgrass [7]; [21]): 0
- Plant response rating, Wheat (wheat [8]; [20]): 0
- Wheat plant response rating (wheat [8]; [19]): 0
- Plant response rating, Morningglory (morningglory [9]; [20]): 0
- Plant response rating, Morningglory (morningglory [9]; [21]): 0
- Plant response rating, Morningglory (morningglory [10]; [20]): 0
- Morningglory plant response rating (morningglory [10]; [19]): 0
- Plant response rating, Foxtail, Giant (giant foxtail [11]; [18]): 10
- Foxtail, Giant plant response rating (giant foxtail [11]; [19]): 20
- Plant response rating, Barnyardgrass (barnyardgrass [12]): 0
- Plant response rating, Sedge, Umbrella (sedge, umbrella): 0
- Plant response rating, Velvetleaf (velvetleaf [13]; [20]): 0
- Velvetleaf plant response rating (velvetleaf [13]; [19]): 40
- Plant response rating, Crabgrass, Large (large (Lg) crabgrass [14]; [20]): 10
- Plant response rating, Crabgrass, Large (large (Lg) crabgrass [14]; [21]): 40
- Plant response rating, Crabgrass, Large (large (Lg) crabgrass [15]; [18]): 10
- Crabgrass, Large plant response rating (large (Lg) crabgrass [15]; [19]): 40
- Plant response rating, Velvetleaf (velvetleaf [16]; [20]): 20
- Plant response rating, Velvetleaf (velvetleaf [16]; [21]): 40
- Plant response rating, Corn (corn [17]; [20]): 0
- Plant response rating, Corn (corn [17]; [21]): 0
- Plant response rating, Rice (rice): 0

SMILES: O=Cc1cccc(Oc2ncc(F)cn2)c1-n1cc(C(F)(F)F)cn1 [Compound 162]
- Plant response rating, Corn (corn [1]; [18]): 0
- Corn plant response rating (corn [1]; [18]): 0
- Wheat plant response rating (wheat [2]; [20]): 0
- Plant response rating, Wheat (wheat [2]; [22]): 0
- Pigweed plant response rating (0 to 100 scale) (pigweed [3]; 125 g ai/ha): 100
- Pigweed plant response rating (pigweed [3]; [18]): 100
- Foxtail, Giant plant response rating (giant foxtail [4]; [20]): 0
- Plant response rating, Foxtail, Giant (giant foxtail [4]; [22]): 0
- Pigweed plant response rating (pigweed [5]; [20]): 30
- Plant response rating, Pigweed (pigweed [5]; [22]): 70
- Plant response rating, Barnyardgrass (barnyardgrass [6]; [18]): 10
- Barnyardgrass plant response rating (barnyardgrass [6]; [18]): 50
- Plant response rating, Ducksalad (Heteranthera limosa): 35
- Barnyardgrass plant response rating (barnyardgrass [7]; [20]): 0
- Plant response rating, Barnyardgrass (barnyardgrass [7]; [22]): 10
- Wheat plant response rating (0 to 100 scale) (wheat [8]; 125 g ai/ha): 0
- Wheat plant response rating (wheat [8]; [18]): 0
- Morningglory plant response rating (morningglory [9]; [20]): 0
- Plant response rating, Morningglory (morningglory [9]; [22]): 10
- Morningglory plant response rating (0 to 100 scale) (morningglory [10]; 125 g ai/ha): 0
- Morningglory plant response rating (morningglory [10]; [18]): 0
- Plant response rating, Foxtail, Giant (giant foxtail [11]; [18]): 0
- Foxtail, Giant plant response rating (giant foxtail [11]; [18]): 0
- Plant response rating, Barnyardgrass (barnyardgrass [12]): 0
- Plant response rating, Sedge, Umbrella (sedge, umbrella): 40
- Velvetleaf plant response rating (0 to 100 scale) (velvetleaf [13]; 125 g ai/ha): 10
- Velvetleaf plant response rating (velvetleaf [13]; [18]): 50
- Crabgrass, Large plant response rating (large (Lg) crabgrass [14]; [20]): 0
- Plant response rating, Crabgrass, Large (large (Lg) crabgrass [14]; [22]): 10
- Plant response rating, Crabgrass, Large (large (Lg) crabgrass [15]; [18]): 0
- Crabgrass, Large plant response rating (large (Lg) crabgrass [15]; [18]): 10
- Velvetleaf plant response rating (velvetleaf [16]; [20]): 10
- Plant response rating, Velvetleaf (velvetleaf [16]; [22]): 50
- Corn plant response rating (corn [17]; [20]): 0
- Plant response rating, Corn (corn [17]; [22]): 10
- Plant response rating, Rice (rice): 0
